Source: article PMC5855875, “Teixobactin analogues reveal enduracididine to be non-essential for highly potent antibacterial activity and lipid II binding” (Chemical Science, 2017)
≈ marks a conversion by molar mass, not a printed value. Bridge positions count the residues as written; N and C are the ends. Square brackets hold non-standard residues; d marks the D form. Peptide text beside a SMILES is read from it. d(aIle) = CC[C@H](C)[C@@H](N)C(=O)O; dNMeF = CN[C@H](Cc1ccccc1)C(=O)O

Assays:
[1] = tested on: MRSA ATCC 33591; test: microbe, parasite or virus in culture; details: for MIC: ATCC 33591, 24 h
Experimental: were grown in Mueller Hinton broth (Oxoid) in triplicate. All incubations were at 37°C. Dilutions were carried out in triplicate. 100 µl of autoclaved Mueller Hinton broth was added to wells 2-12 in a 96-well plate. 200 µl of the peptide was added to well one at a concentration of 256 µg/mL. 100µl of peptide in well one was taken up and pipetted into well two. The mixture was then mixed via pipetting before 100µl was taken up and pipetted into well three. This process was repeated up to well 11. Once […]
peptide present. Thus, the concentrations (in µg/mL) were: 256, 128, 64, 32, 16, 8, 4, 2, 1, 0.5, 0.25 and no peptide present. Each well was then inoculated with 100µl of bacteria that had been diluted to an […]
This was repeated three times. The 96-well plates were then incubated at 37°C for 24 hours. The MIC was determined to be the lowest concentration at which there was no growth visible. […]
was repeated at an altered initial concentration of 64 µg/ml. Therefore, the new concentrations for MIC […]
(§1) VIII. MIC testing (extended panel)
(§2) Bacterial cultures were grown overnight i n Mueller-Hinton Agar (MHA) plates and adjusted to a final concentration of 10 5 – 106 CFU/ml. 100 µl of inoculum in Meuller -Hinton broth (MHB) was mixed with equal volume of peptides (dissolved in MHB) at 2x their concentration in a 96 well plate. In parallel experiments, MIC values were determined in the media containing polysorbate 80 (0 .002%, v/v) to […]

[2] = tested on: VRE 1: VRE ATCC 700802; test: organism not typed
Experimental: as §1, §2
(§3) prevent non-specific adsorption of the peptides to plastic surfaces. The final peptides concentrations […]
(§4) Positive and negative controls contained 200 µl of inoculum without any peptide dissolved in broth, respectively. The 96 well plates were then incubated at 37 °C for 24 h. […]
(§5) 80. Strain information: MRSA 1: MRSA ATCC 700699, MRSA 2: MRSA DR 42412 (sputum), MRSA
(§6) 3: MRSA DM21455 (eye). […] Staphylococcus aureus ATCC

[3] = tested on: VRE 2: VRE ATCC 29212; test: organism not typed
Experimental: as §1, §2, §3, §4, §5, §6

[4] = tested on: Staphylococcus aureus ATCC 29213; test: microbe, parasite or virus in culture
Experimental: as §1, §2, §3
(§7) Positive and negative controls contained 200 µl of inoculum without any peptide dissolved in broth, respectively. The 96 well plates were then incubated at 37 °C for 24 h.
(§8) All the experiments were performed in two independent duplicates and the MIC was determined as the […]
(§9) Minimum bactericidal concentration
(§10) The lowest concentration in which no visible colonies could be detected was taken as the MBC.
as §5, §6

[5] = tested on: MRSA 1: MRSA ATCC 700699; test: microbe, parasite or virus in culture
Experimental: as §1, §2, §3, §7, §8, §9, §10, §5, §6

[6] = tested on: MRSA 3: MRSA DM21455 (eye); test: microbe, parasite or virus in culture
Experimental: as §1, §2, §3, §7, §8, §9, §10, §5, §6

[7] = tested on: MRSA 2: MRSA DR 42412 (sputum); test: microbe, parasite or virus in culture
Experimental: as §1, §2, §3, §4, §5, §6

[8] = from MIC against MRSA ATCC 33591

`CC[C@H](C)[C@H](NC(=O)[C@@H](Cc1ccccc1)NC)C(=O)N[C@@H](CO)C(=O)N[C@H](CCC(N)=O)C(=O)N[C@@H](C(=O)N[C@H](C(=O)N[C@@H](CO)C(=O)N[C@H]1C(=O)N[C@@H](C)C(=O)N[C@H](C)C(=O)N[C@@H]([C@@H](C)CC)C(=O)O[C@H]1C)[C@@H](C)CC)[C@@H](C)CC` [Compound 9, D-Ala10-teixobactin] (H-[dNMeF]IS[dQ][d(aIle)]IS[dT]A[dA]I; ester 8-C) was tested, and the MIC [1] was 32 μg mL^–1 and the “times lower antibacterial activity than Arg10-teixobactin” value [1, 8] was 16 times.
For `CC[C@H](C)[C@H](NC(=O)[C@@H](Cc1ccccc1)NC)C(=O)N[C@@H](CO)C(=O)N[C@H](CCC(N)=O)C(=O)N[C@@H](C(=O)N[C@H](C(=O)N[C@@H](CO)C(=O)N[C@H]1C(=O)N[C@@H](C)C(=O)NCC(=O)N[C@@H]([C@@H](C)CC)C(=O)O[C@H]1C)[C@@H](C)CC)[C@@H](C)CC` [Compound 10, Gly10-teixobactin] (H-[dNMeF]IS[dQ][d(aIle)]IS[dT]AGI; ester 8-C), the MIC [1] was 2 μg mL^–1.
In the case of `CC[C@H](C)[C@H](NC(=O)[C@@H](Cc1ccccc1)NC)C(=O)N[C@@H](CO)C(=O)N[C@H](CCC(N)=O)C(=O)N[C@@H](C(=O)N[C@H](C(=O)N[C@@H](CO)C(=O)N[C@H]1C(=O)N[C@@H](C)C(=O)N[C@@H](C(C)C)C(=O)N[C@@H]([C@@H](C)CC)C(=O)O[C@H]1C)[C@@H](C)CC)[C@@H](C)CC` [Compound 11, Val10-teixobactin] (H-[dNMeF]IS[dQ][d(aIle)]IS[dT]AVI; ester 8-C), the MIC ([2]; ATCC 700802, 24 h) is reported as 0.5 μg mL^–1, the “MIC (without polysorbate 80)” value ([2]; ATCC 700802, 24 h) is reported as 4 µg/mL (≈ 3.37 µM) and the “MIC (with polysorbate 80)” value ([2]; VRE 1, MHB containing polysorbate 80 (0.002%, v/v), 37 °C, 24 h) is reported as 0.5 µg/mL (≈ 0.421 µM). For the same compound, the MIC ([3]; ATCC 29212, 24 h) was 0.5 μg mL^–1, the “MIC (without polysorbate 80)” value ([3]; ATCC 29212, 24 h) was 4 µg/mL (≈ 3.37 µM) and the “MIC (with polysorbate 80)” value ([3]; VRE 2, MHB containing polysorbate 80 (0.002%, v/v), 37 °C, 24 h) was 0.5 µg/mL (≈ 0.421 µM). The “MIC (without polysorbate 80)” value ([4]; ATCC 29213, 24 h) was 2 µg/mL (≈ 1.68 µM), the “MIC (with polysorbate 80)” value ([4]; S. aureus ATCC 29213, MHB containing polysorbate 80 (0.002%, v/v), 37 °C, 24 h) was 0.25 µg/mL (≈ 0.211 µM) and the MBC ([4]; Staphylococcus aureus ATCC 29213, plated on MHA, 37 °C, 24 h) was 1 μg mL^–1. For the same compound, the MIC ([5]; ATCC 700699, 24 h) was 1 μg mL^–1, the “MIC (without polysorbate 80)” value ([5]; ATCC 700699, 24 h) was 4 µg/mL (≈ 3.37 µM) and the MBC ([5]; MRSA 1 (MRSA ATCC 700699), plated on MHA, 37 °C, 24 h) was 4 μg mL^–1. For the same compound, the “MIC (with polysorbate 80)” value ([5]; MRSA 1, MHB containing polysorbate 80 (0.002%, v/v), 37 °C, 24 h, two independent duplicates) was 1 µg/mL (≈ 0.842 µM), the MIC ([6]; 3: DM21455 (eye, 24 h)) was 0.25 μg mL^–1 and the “MIC (without polysorbate 80)” value ([6]; 3: DM21455 (eye, 24 h)) was 4 µg/mL (≈ 3.37 µM). For the same compound, the MBC ([6]; MRSA 3 (MRSA DM21455), plated on MHA, 37 °C, 24 h) was 2 μg mL^–1, the “MIC (with polysorbate 80)” value ([6]; MRSA 3, MHB containing polysorbate 80 (0.002%, v/v), 37 °C, 24 h) was 0.25 µg/mL (≈ 0.211 µM) and the MIC ([7]; 2: DR 42412 (sputum, 24 h)) was 0.5 μg mL^–1. For the same compound, the “MIC (without polysorbate 80)” value ([7]; 2: DR 42412 (sputum, 24 h)) was 2 µg/mL (≈ 1.68 µM), the MBC ([7]; MRSA 2 (MRSA DR 42412), plated on MHA, 37 °C, 24 h) was 4 μg mL^–1 and the “MIC (with polysorbate 80)” value ([7]; MRSA 2, MHB containing polysorbate 80 (0.002%, v/v), 37 °C, 24 h) was 0.5 µg/mL (≈ 0.421 µM). The MIC [1] was 0.5 μg mL^–1 and the “times better antibacterial activity than Arg10-teixobactin” value [1, 8] was 4 times.
